Reference: patent publication US20240336613A1, “HETEROARYL COMPOUNDS FOR TREATING HUNTINGTON'S DISEASE” (PTC THERAPEUTICS, INC., priority 2021, published 2024)

What follows are compounds tested on Huntingtin protein (HTT) (assay: Endogenous Huntingtin Protein Assay (MSD electrochemiluminescence)). Settings: Table 1, Endogenous Huntingtin Protein Assay.
Assay type: cell-based
Procedure: Compounds of Formula (I) were tested using the Meso Scale Discovery (MSD) Assay provided in International Application No. PCT/US2016/066042, filed on Dec. 11, 2016 and claiming priority to United States Provisional Application U.S. 62/265,652 filed on Dec. 10, 2015, the entire contents of which are incorporated herein by reference.
The Endogenous Huntingtin Protein assay used in Example 1 was developed using the ELISA-based MSD electrochemiluminescence assay platform.
Meso Scale Discovery (MSD) 96-well or 384-well plates were coated overnight at 4° C. with MW1 (expanded polyglutamine) or MAB2166 monoclonal antibody (for capture) at a concentration of 1 μg/mL in PBS (30 μL per well). Plates were then washed three times with 300 μL wash buffer (0.05% Tween-20 in PBS) and blocked (100 μL blocking buffer; 5% BSA in PBS) for 4-5 hours at room temperature with rotational shaking and then washed three times with wash buffer.
Samples (25 μL) were transferred to the antibody-coated MSD plate and incubated overnight at 4° C. After removal of the lysates, the plate was washed three times with wash buffer, and 25 μL of #5656S (Cell signaling; rabbit monoclonal) secondary antibody (diluted to 0.25 μg/mL in 0.05% Tween-20 in blocking buffer) was added to each well and incubated with shaking for 1 Hour at room temperature. Following incubation with the secondary antibody, the wells were rinsed with wash buffer after which 25 μL of goat anti-rabbit SULFO TAG secondary detection antibody (required aspect of the MSD system) (diluted to 0.25 μg/mL in 0.05% Tween-20 in blocking buffer) was added to each well and incubated with shaking for 1 hour at room temperature. After rinsing three times with wash buffer, 150 μL of read buffer T with surfactant (MSD) were added to each empty well, and the plate was imaged on a SI 6000 imager (MSD) according to manufacturers' instructions provided for 96- or 384-well plates.

Compound | IC50
Cc1cn(-c2ccc(-c3cc4ccn([C@H]5CC(C)(C)NC(C)(C)[C@H]5F)c4nn3)c(O)c2)nn1 [Cpd 15, 2-{7-[(3S,4S)-3-fluoro-2,2,6,6-tetramethylpiperidin-4-yl]-7H-pyrrolo[2,3-c]pyridazin-3-yl}-5-(4-methyl-1H-1,2,3-triazol-1-yl)phenol] | < 100 nM
Cc1cn(-c2ccc(-c3cc4ccn([C@H]5CCNC6(CC6)C5)c4nn3)c(O)c2)nn1 [Cpd 16, 2-{7-[(7S)-4-azaspiro[2.5]octan-7-yl]-7H-pyrrolo[2,3-c]pyridazin-3-yl}-5-(4-methyl-1H-1,2,3-triazol-1-yl)phenol] | < 100 nM
Cc1cnnn1-c1ccc(-c2cc3ccn([C@H]4CC(C)(C)NC(C)(C)[C@H]4F)c3nn2)c(O)c1 [Cpd 17, 2-{7-[(3S,4S)-3-fluoro-2,2,6,6-tetramethylpiperidin-4-yl]-7H-pyrrolo[2,3-c]pyridazin-3-yl}-5-(5-methyl-1H-1,2,3-triazol-1-yl)phenol] | 100 to 500 nM
CC1(C)C[C@H](n2ccc3cc(-c4ccc(-n5cc(Cl)nn5)cc4O)nnc32)[C@H](F)C(C)(C)N1 [Cpd 19, 5-(4-chloro-1H-1,2,3-triazol-1-yl)-2-{7-[(3S,4S)-3-fluoro-2,2,6,6-tetramethylpiperidin-4-yl]-7H-pyrrolo[2,3-c]pyridazin-3-yl}phenol] | < 100 nM

Same assay, conditions: Table 1, Endogenous Huntingtin Protein Assay; read-out: IC50

IC50 | Compound
< 100 nM | CC1(C)CC(n2ccc3cc(-c4ccc(-n5ccnn5)cc4O)nnc32)CCN1 (racemic) [Cpd 5, 2-{7-[(4RS)-2,2-dimethylpiperidin-4-yl]-7H-pyrrolo[2,3-c]pyridazin-3-yl}-5-(1H-1,2,3-triazol-1-yl)phenol]
< 100 nM | CC1(C)CC(n2ccc3cc(-c4ccc(-n5ccnn5)cc4O)nnc32)CC(C)(C)N1 [Cpd 1, 2-[7-(2,2,6,6-tetramethylpiperidin-4-yl)-7H-pyrrolo[2,3-c]pyridazin-3-yl]-5-(1H-1,2,3-triazol-1-yl)phenol]
< 100 nM | Oc1cc(-n2ccnn2)ccc1-c1cc2ccn(C3CCNC4(CC4)C3)c2nn1 (stereo not shown) [Cpd 4, 2-[7-(4-azaspiro[2.5]octan-7-yl)-7H-pyrrolo[2,3-c]pyridazin-3-yl]-5-(1H-1,2,3-triazol-1-yl)phenol]
< 100 nM | CN1CCC(n2ccc3cc(-c4ccc(-n5ccnn5)cc4O)nnc32)CC12CC2 (stereo not shown) [Cpd 7, 2-[7-(4-methyl-4-azaspiro[2.5]octan-7-yl)-7H-pyrrolo[2,3-c]pyridazin-3-yl]-5-(1H-1,2,3-triazol-1-yl)phenol]
< 100 nM | CC1(C)C[C@H](n2ccc3cc(-c4ccc(-n5ccnn5)cc4O)nnc32)[C@H](F)C(C)(C)N1 [Cpd 8]
100 to 500 nM | Cc1cc2cc(-c3ccc(-n4ccnn4)cc3O)nnc2n1C1CCNC2(CC2)C1 (stereo not shown) [Cpd 9, 2-[7-(4-azaspiro[2.5]octan-7-yl)-6-methyl-7H-pyrrolo[2,3-c]pyridazin-3-yl]-5-(1H-1,2,3-triazol-1-yl)phenol]
< 100 nM | Cc1cc2cc(-c3ccc(-n4ccnn4)cc3O)nnc2n1[C@H]1CC(C)(C)NC(C)(C)[C@H]1F [Cpd 10, 2-{7-[(3S,4S)-3-fluoro-2,2,6,6-tetramethylpiperidin-4-yl]-6-methyl-7H-pyrrolo[2,3-c]pyridazin-3-yl}-5-(1H-1,2,3-triazol-1-yl)phenol]
< 100 nM | Oc1cc(-n2ccnn2)ccc1-c1cc2ccn([C@@H]3CCNC4(CC4)C3)c2nn1 [Cpd 11, 2-{7-[(7R)-4-azaspiro[2.5]octan-7-yl]-7H-pyrrolo[2,3-c]pyridazin-3-yl}-5-(1H-1,2,3-triazol-1-yl)phenol]
< 100 nM | Oc1cc(-n2ccnn2)ccc1-c1cc2ccn([C@H]3CCNC4(CC4)C3)c2nn1 [Cpd 13, 2-{7-[(7S)-4-azaspiro[2.5]octan-7-yl]-7H-pyrrolo[2,3-c]pyridazin-3-yl}-5-(1H-1,2,3-triazol-1-yl)phenol]
< 100 nM | Oc1cc(-n2ccnn2)cnc1-c1cc2ccn([C@H]3CCNC4(CC4)C3)c2nn1 [Cpd 14, 2-{7-[(7S)-4-azaspiro[2.5]octan-7-yl]-7H-pyrrolo[2,3-c]pyridazin-3-yl}-5-(1H-1,2,3-triazol-1-yl)pyridine-3-ol]
500 to 1000 nM | Cc1cnnn1-c1ccc(-c2cc3ccn([C@H]4CCNC5(CC5)C4)c3nn2)c(O)c1 [Cpd 18, 2-{7-[(7S)-4-azaspiro[2.5]octan-7-yl]-7H-pyrrolo[2,3-c]pyridazin-3-yl}-5-(5-methyl-1H-1,2,3-triazol-1-yl)phenol]
< 100 nM | CC1(C)C[C@H](n2ccc3cc(-c4ccc(-n5ccnn5)cc4O)nnc32)[C@H](F)CN1 [Cpd 22, 2-{7-[(4S,5R)-5-fluoro-2,2-dimethylpiperidin-4-yl]-7H-pyrrolo[2,3-c]pyridazin-3-yl}-5-(1H-1,2,3-triazol-1-yl)phenol]
< 100 nM | Oc1cc(-n2ccnn2)ccc1-c1cc2ccn(C3CC4(CC4)NC4(CC4)C3)c2nn1 (stereo not shown) [Cpd 24, 2-[7-(4-azadispiro[2.1.2^5.3^3]decan-9-yl)-7H-pyrrolo[2,3-c]pyridazin-3-yl]-5-(1H-1,2,3-triazol-1-yl)phenol]
< 100 nM | CC1(C)C[C@H](n2ccc3cc(-c4cc(F)c(-n5ccnn5)cc4O)nnc32)[C@H](F)C(C)(C)N1 [Cpd 26, 4-fluoro-2-{7-[(3S,4S)-3-fluoro-2,2,6,6-tetramethylpiperidin-4-yl]-7H-pyrrolo[2,3-c]pyridazin-3-yl}-5-(1H-1,2,3-triazol-1-yl)pheno]

Compound | IC50
2-{7-[(1S,2R,3R,5R)-2-fluoro-1,5-dimethyl-8-azabicyclo[3.2.1]octan-3-yl]-7H-pyrrolo[2,3-c]pyridazin-3-yl}-5-(1H-1,2,3-triazol-1-yl)phenol and 2-{7-[(1R,2S,3S,5S)-2-fluoro-1,5-dimethyl-8-azabicyclo[3.2.1]octan-3-yl]-7H-pyrrolo[2,3-c]pyridazin-3-yl}-5-(1H-1,2,3-triazol-1-yl)phenol [Cpd 21] | < 100 nM
2-{7-[(1S,2S,3R,5R)-2-fluoro-8-azabicyclo[3.2.1]octan-3-yl]-7H-pyrrolo[2,3-c]pyridazin-3-yl}-5-(1H-1,2,3-triazol-1-yl)phenol and 2-{7-[(1R,2R,3S,5S)-2-fluoro-8-azabicyclo[3.2.1]octan-3-yl]-7H-pyrrolo[2,3-c]pyridazin-3-yl}-5-(1H-1,2,3-triazol-1-yl)phenol [Cpd 20] | < 100 nM
2-{7-[(3R,4S)-3-fluoro-2,2,6,6-tetramethylpiperidin-4-yl]-7H-pyrrolo[2,3-c]pyridazin-3-yl}-5-(1H-1,2,3-triazol-1-yl)phenol and 2-{7-[(3S,4R)-3-fluoro-2,2,6,6-tetramethylpiperidin-4-yl]-7H-pyrrolo[2,3-c]pyridazin-3-yl}-5-(1H-1,2,3-triazol-1-yl)phenol [Cpd 3] | < 100 nM
2-{7-[(3S,4S)-3-fluoro-2,2,6,6-tetramethylpiperidin-4-yl]-7H-pyrrolo[2,3-c]pyridazin-3-yl}-5-(1H-1,2,3-triazol-1-yl)phenol and 2-{7-[(3R,4R)-3-fluoro-2,2,6,6-tetramethylpiperidin-4-yl]-7H-pyrrolo[2,3-c]pyridazin-3-yl}-5-(1H-1,2,3-triazol-1-yl)phenol [Cpd 2] | < 100 nM
2-{7-[(4S,5R)-5-fluoro-2,2-dimethylpiperidin-4-yl]-7H-pyrrolo[2,3-c]pyridazin-3-yl}-5-(1H-1,2,3-triazol-1-yl)phenol and 2-{7-[(4R,5S)-5-fluoro-2,2-dimethylpiperidin-4-yl]-7H-pyrrolo[2,3-c]pyridazin-3-yl}-5-(1H-1,2,3-triazol-1-yl)phenol [Cpd 12] | < 100 nM
2-{7-[(8R,9R)-9-fluoro-5-azaspiro[3.5]nonan-8-yl]-7H-pyrrolo[2,3-c]pyridazin-3-yl}-5-(1H-1,2,3-triazol-1-yl)phenol and 2-{7-[(8S,9S)-9-fluoro-5-azaspiro[3.5]nonan-8-yl]-7H-pyrrolo[2,3-c]pyridazin-3-yl}-5-(1H-1,2,3-triazol-1-yl)phenol [Cpd 23] | < 100 nM
2-{7-[(8S,9R)-8-fluoro-6-azaspiro[4.5]decan-9-yl]-7H-pyrrolo[2,3-c]pyridazin-3-yl}-5-(1H-1,2,3-triazol-1-yl)phenol and 2-{7-[(8R,9S)-8-fluoro-6-azaspiro[4.5]decan-9-yl]-7H-pyrrolo[2,3-c]pyridazin-3-yl}-5-(1H-1,2,3-triazol-1-yl)phenol [Cpd 25] | 100 to 500 nM
5-(1H-1,2,3-triazol-1-yl)-2-{7-[(4RS)-1,2,2-trimethylpiperidin-4-yl]-7H-pyrrolo[2,3-c]pyridazin-3-yl}phenol [Cpd 6] | 500 to 1000 nM

Same assay, conditions: Table 2, comparison compounds tested according to the assay of Example 1; read-out: IC50

IC50 | Compound
0.8 nM | CC1(C)CC(n2ccc3cc(-c4ccc(-n5ccnn5)cc4O)nnc32)CC(C)(C)N1 [Cpd 1, 2-[7-(2,2,6,6-tetramethylpiperidin-4-yl)-7H-pyrrolo[2,3-c]pyridazin-3-yl]-5-(1H-1,2,3-triazol-1-yl)phenol]
6.4 nM | CC1(C)CC(n2nnc3cc(-c4ccc(-c5cn[nH]c5)cc4O)nnc32)CC(C)(C)N1 [Cpd 7 in WO2020/005873, reference compound]
7.1 nM | CC1(C)CC(n2ccc3cc(-c4ccc(-c5cn[nH]c5)cc4O)nnc32)CC(C)(C)N1 [Cpd 26 in WO2020/005873, reference compound]

Same assay, conditions: compared with Cpd 26 in WO2020/005873 (1H-pyrazole replaced with 1H-1,2,3-triazole)

Compound | improvement in potency
CC1(C)CC(n2ccc3cc(-c4ccc(-n5ccnn5)cc4O)nnc32)CC(C)(C)N1 [Cpd 1, 2-[7-(2,2,6,6-tetramethylpiperidin-4-yl)-7H-pyrrolo[2,3-c]pyridazin-3-yl]-5-(1H-1,2,3-triazol-1-yl)phenol] | over 8 fold

Same assay, conditions: compared with Cpd 72 in WO2020/005873 (3H-[1,2,3]-triazolo[4,5-c]pyridazine core)

Compound | improvement in potency
CC1(C)CC(n2ccc3cc(-c4ccc(-n5ccnn5)cc4O)nnc32)CC(C)(C)N1 [Cpd 1, 2-[7-(2,2,6,6-tetramethylpiperidin-4-yl)-7H-pyrrolo[2,3-c]pyridazin-3-yl]-5-(1H-1,2,3-triazol-1-yl)phenol] | 223 fold
